Here are results for 22 compounds from the SangsterLogP compilation.

`Nc1ccc2oc3cc(-c4nnn[nH]4)ccc3c(=O)c2c1` yielded a logP of 2.18.

On to `CCCc1ccc2oc3cc(C(=O)O)ccc3c(=O)c2c1`, for which the logP is 4.59.

Compound `CCCCOc1ccc2oc3cc(-c4nnn[nH]4)ccc3c(=O)c2c1` showed a logP of 4.69.

As to `CCSc1ccc2oc3cc(-c4nnn[nH]4)ccc3c(=O)c2c1`, the logP turned out to be 4.06.

With `COCc1ccc2oc3cc(C(=O)O)ccc3c(=O)c2c1`, the lipophilicity (logP) is 3.12.

Compound `O=c1c2ccc(-c3nnn[nH]3)cc2oc2ccc(OCCO)cc12` yielded a logP of 2.31.

In turn, `N#Cc1ccc2oc3ccc(-c4nnn[nH]4)cc3c(=O)c2c1` showed a logP of 2.52.

`CCSc1ccc2oc3cc(C(=O)O)ccc3c(=O)c2c1` came in with a logP of 4.36.

The compound `O=C(O)c1ccc2c(=O)c3cc(OCCO)ccc3oc2c1` had a logP of 2.46.

Compound `COc1ccc2oc3cc(-c4nnn[nH]4)ccc3c(=O)c2c1` gave a lipophilicity (logP) of 3.15.

Compound `O=C(O)c1ccc2c(=O)c3cc([N+](=O)[O-])ccc3oc2c1` displayed a logP of 3.12. The logP values of the last two compounds are within 0.2 log units of each other.

`O=c1c2ccc(-c3nnn[nH]3)cc2oc2ccc([N+](=O)[O-])cc12` had a log partition coefficient (logP) of 2.83.

Regarding `Nc1ccc2oc3cc(C(=O)O)ccc3c(=O)c2c1`, the logP turned out to be 2.3.

`CCCC(=O)OCCOc1ccc2oc3cc(-c4nnn[nH]4)ccc3c(=O)c2c1` gave a lipophilicity (logP) of 3.73.

`COc1ccc2oc3cc(C(=O)O)ccc3c(=O)c2c1` gave a logP of 3.37.

As to `O=C(O)c1ccc2c(=O)c3cc(OCCOCCO)ccc3oc2c1`, the logP is 2.62.

`CCCCOc1ccc2oc3cc(C(=O)O)ccc3c(=O)c2c1` came in with a lipophilicity (logP) of 5.

Regarding `O=c1c2ccccc2oc2cc(-c3nn[nH]n3)ccc12`, the logP is 2.86.

The compound `CCCC(=O)OCCOc1ccc2oc3cc(C(=O)O)ccc3c(=O)c2c1` showed a logP of 4.

For `CCOc1ccc2oc3cc(-c4nn[nH]n4)ccc3c(=O)c2c1`, the logP is 3.67.

Take `CCOc1ccc2oc3cc(C(=O)O)ccc3c(=O)c2c1`: the logP is 3.99.

With `CC(O)COc1ccc2oc3cc(C(=O)O)ccc3c(=O)c2c1` (configuration not stated), the logP was 2.87.

One may read the logP as the decadic logarithm of the partition coefficient of the neutral form, usually between octanol and water. A higher logP goes with a more lipophilic compound.
